Reference: patent US9221835B2, “Spirocyclic derivatives as antiparasitic agents” (Zoetis Services LLC, priority 2012, dated 2015)
Where a name gives a salt, the structure may show the parent alone.

What was measured:
Format in all cases: in vivo
[1] = system: Mosquito (Aedes aeqypti) larvae; assay: Mosquito (Aedes aeqypti) Larval Assay; details: first instar larvae, 25° C., 24 hours, lowest dose to inhibit motility ≧50% of untreated controls, half-log intervals, read-out: Minimum Effective Concentration (MEC)
Protocol: Mosquito (Aedes aeqypti) Larval Assay
Compounds were dissolved in DMSO and aliquots were spotted to empty wells. First instar mosquito larvae and maintenance media were added to the wells to obtain between 8 and 15 larvae per well in the appropriate final assay volume. Larvae were incubated in the treated media at 25° C. for 24 hours. Mosquito larvae motility was measured at 24 hours. Each compound was tested at half-log intervals, and endpoint results were recorded as Minimum Effective Concentration (MEC) in μM. MEC is an objective assessment of organism motility, and is the lowest dose to inhibit motility ≧50% of untreated controls.

[2] = system: Flea (Ctenocephalides felis); assay: Flea (Ctenocephalides felis) Membrane Feed Assay-Adult; details: adult fleas fed on treated citrated bovine blood for 24 hours, lowest dose to cause mortality ≧50%, half-log intervals, read-out: Minimum Effective Concentration (MEC)
Protocol: Flea (Ctenocephalides felis) Membrane Feed Assay-Adult
Compounds were dissolved in DMSO and aliquots were added to citrated bovine blood in membrane covered wells warmed to 37° C. Adult fleas were newly emerged (3-7 days) and unfed. Feeding wells containing approximately 10 adult fleas were placed onto the treated blood wells, and the fleas were allowed to feed on the treated blood for 24 hours. […] Each compound was tested at half-log intervals, and endpoint data was recorded as Minimum Effective Concentration in μM. MEC is a subjective visual assessment of organism viability, and is the lowest dose to cause mortality ≧50%.

[3] = system: Soft Tick (Ornithidorus turicata); assay: Soft Tick (Ornithidorus turicata) Blood Feed Assay; details: nymph stage ticks fed on treated citrated bovine blood; paralysis and/or death observed at approximately 24, 48 and 72 hours
Protocol: Soft Tick (Ornithidorus turicata) Blood Feed Assay
Compounds of the present invention were dissolved in dimethylsulfoxide (DMSO) and aliquots added to citrated bovine blood in a membrane covered Petri dish. The Petri dish is placed on a warming tray. Approximately 5 nymph stage ticks are placed onto the membrane, covered, and left to feed. Fed ticks are removed and placed into a Petri dish with sand. […] Endpoint data was recorded as a 100% lethal dose (LD^100) in μg/mL.

Row | SMILES | minimal effective concentration [1] [µM] | minimal effective concentration [2] [µM] | 100% lethal dose (LD100) [3] [µg/mL]
1 | CC(C)C(=O)N1CC2(C1)OCc1cc(C3=NCC(c4cc(Cl)c(Cl)c(Cl)c4)(C(F)(F)F)C3)ccc12 (stereo not shown) [Example 2, 2-methyl-1-(5′-(3-(3,4,5-trichlorophenyl)-3-(trifluoromethyl)-3,4-dihydro-2H-pyrrol-5-yl)-3′H-spiro[azetidine-3,1′-isobenzofuran]-1-yl)propan-1-one] | 0.1 | – | –
2 | CS(=O)(=O)CC(=O)N1CC2(C1)OCc1cc(C3=NCC(c4cc(Cl)c(F)c(Cl)c4)(C(F)(F)F)C3)ccc12 (stereo not shown) [Example 3, 1-(5′-(3-(3,5-dichloro-4-fluorophenyl)-3-(trifluoromethyl)-3,4-dihydro-2H-pyrrol-5-yl)-3′H-spiro[azetidine-3,1′-isobenzofuran]-1-yl)-2-(methylsulfonyl)ethanone] | 0.03 | – | –
3 | CC(C)C(=O)N1CC2(C1)OCc1cc(C3=NCC(c4cc(Cl)c(F)c(Cl)c4)(C(F)(F)F)C3)ccc12 (stereo not shown) [Example 4, 1-(5′-(3-(3,5-dichloro-4-fluorophenyl)-3-(trifluoromethyl)-3,4-dihydro-2H-pyrrol-5-yl)-3′H-spiro[azetidine-3,1′-isobenzofuran]-1-yl)-2-methyl propan-1-one] | 0.1 | – | –
4 | CS(=O)(=O)CC(=O)N1CC2(C1)OCc1cc(C3=NCC(c4cc(Cl)cc(Cl)c4)(C(F)(F)F)C3)ccc12 (stereo not shown) [Example 5, 1-(5′-(3-(3,5-dichlorophenyl)-3-(trifluoromethyl)-3,4-dihydro-2H-pyrrol-5-yl)-3′H-spiro[azetidine-3,1′-isobenzofuran]-1-yl)-2-(methylsulfonyl)ethanone] | 0.03 | 0.3 | –
5 | CS(=O)(=O)CC(=O)N1CC2(C1)OCc1cc(C3=COC(c4cc(Cl)cc(Cl)c4)(C(F)(F)F)C3)ccc12 (stereo not shown) [Example 7, 5′-[5-(3,5-dichlorophenyl)-5-(trifluoromethyl)-4,5-dihydrofuran-3-yl]-1-[(methylsulfonyl)acetyl]-3′H-spiro[azetidine-3,1′-[2]benzofuran]] | > 3 | – | –
6 | CC(C)C(=O)N1CC2(C1)OCc1cc(C3=COC(c4cc(Cl)cc(Cl)c4)(C(F)(F)F)C3)ccc12 (stereo not shown) [Example 8, 5′-[5-(3,5-dichlorophenyl)-5-(trifluoromethyl)-4,5-dihydrofuran-3-yl]-1-isobutyryl-3′H-spiro[azetidine-3,1′-[2]benzofuran]] | > 3 | – | –
7 | CS(=O)(=O)CC(=O)N1CC2(C1)OCc1cc(C3=COC(c4cc(Cl)c(Cl)c(Cl)c4)(C(F)(F)F)C3)ccc12 (stereo not shown) [Example 9, 2-(methylsulfonyl)-1-(5′-(5-(3,4,5-trichlorophenyl)-5-(trifluoromethyl)-4,5-dihydrofuran-3-yl)-3′H-spiro[azetidine-3,1′-isobenzofuran]-1-yl)ethanone] | > 3 | – | –
8 | CC(C)C(=O)N1CC2(C1)OCc1cc(C3=COC(c4cc(Cl)c(Cl)c(Cl)c4)(C(F)(F)F)C3)ccc12 (stereo not shown) [Example 10] | > 3 | – | –
9 | CS(=O)(=O)CC(=O)N1CC2(C1)OCc1cc(C3=COC(c4cc(Cl)c(F)c(Cl)c4)(C(F)(F)F)C3)ccc12 (stereo not shown) [Example 11, 5′-[5-(3,5-dichloro-4-fluorophenyl)-5-(trifluoromethyl)-4,5-dihydrofuran-3-yl]-1-[(methylsulfonyl)acetyl]-3′H-spiro[azetidine-3,1′-[2]benzofuran]] | > 3 | – | –
10 | CC(C)C(=O)N1CC2(C1)OCc1cc(C3=COC(c4cc(Cl)c(F)c(Cl)c4)(C(F)(F)F)C3)ccc12 (stereo not shown) [Example 12, 5′-[5-(3,5-dichloro-4-fluorophenyl)-5-(trifluoromethyl)-4,5-dihydrofuran-3-yl]-1-isobutyryl-3′H-spiro[azetidine-3,1′-[2]benzofuran]] | > 3 | – | –
11 | CN1N=C(c2ccc3c(c2)COC32CN(C(=O)CS(C)(=O)=O)C2)CC1(c1cc(Cl)c(F)c(Cl)c1)C(F)(F)F (stereo not shown) [Example 14, 1-(5′-(5-(3,5-dichloro-4-fluorophenyl)-1-methyl-5-(trifluoromethyl)-4,5-di hydro-1H-pyrazol-3-yl)-3′H-spiro[azetidine-3,1′-isobenzofuran]-1-yl)-2-(methylsulfonyl)ethanone] | – | ≥ 3 | 0.1
12 | CC(C)C(=O)N1CC2(C1)OCc1cc(C3=NNC(c4cc(Cl)c(F)c(Cl)c4)(C(F)(F)F)C3)ccc12 (stereo not shown) [Example 15, 1-(5′-(5-(3,5-dichloro-4-fluorophenyl)-5-(trifluoromethyl)-4,5-dihydro-1H-pyrazol-3-yl)-3′H-spiro[azetidine-3,1′-isobenzofuran]-1-yl)-2-methylpropan-1-one] | – | ≥ 3 | 0.03
13 | CC(C)C(=O)N1CC2(C1)OCc1cc(C3=NN(C)C(c4cc(Cl)c(F)c(Cl)c4)(C(F)(F)F)C3)ccc12 (stereo not shown) [Example 16, 1-(5′-(5-(3,5-dichloro-4-fluorophenyl)-1-methyl-5-(trifluoromethyl)-4,5-dihydro-1H-pyrazol-3-yl)-3′H-spiro[azetidine-3,1′-isobenzofuran]-1-yl)-2-methylpropan-1-one] | – | 1 | 0.03
14 | CC(C)C(=O)N1CC2(C1)OCc1cc(C3=NNC(c4cc(Cl)c(Cl)c(Cl)c4)(C(F)(F)F)C3)ccc12 (stereo not shown) [Example 17] | – | ≥ 3 | –
15 | CS(=O)(=O)CC(=O)N1CC2(C1)OCc1cc(C3=NNC(c4cc(Cl)c(Cl)c(Cl)c4)(C(F)(F)F)C3)ccc12 (stereo not shown) [Example 18, 2-(methylsulfonyl)-1-(5′-(5-(3,4,5-trichlorophenyl)-5-(trifluoromethyl)-4,5-dihydro-1H-pyrazol-3-yl)-3′H-spiro[azetidine-3,1′-isobenzofuran]-1-yl)ethanone hydrochloride] | – | ≥ 3 | –
16 | CC(C)C(=O)N1CC2(C1)OCc1cc(C3=NNC(c4cc(Cl)cc(Cl)c4)(C(F)(F)F)C3)ccc12 (stereo not shown) [Example 19, 1-(5′-(5-(3,5-dichlorophenyl)-5-(trifluoromethyl)-4,5-dihydro-1H-pyrazol-3-yl)-3′H-spiro[azetidine-3,1′-isobenzofuran]-1-yl)-2-methylpropan-1-one hydrochloride] | 0.1 | ≥ 3 | –
17 | CS(=O)(=O)CC(=O)N1CC2(C1)OCc1cc(C3=NNC(c4cc(Cl)cc(Cl)c4)(C(F)(F)F)C3)ccc12 (stereo not shown) [Example 20] | 0.1 | ≥ 3 | –
18 | CC(C)C(=O)N1CC2(C1)OCc1cc(N3CCC(c4cc(Cl)c(F)c(Cl)c4)(C(F)(F)F)C3)ccc12 (stereo not shown) [Example 21] | – | ≥ 3 | 0.01
19 | CC(C)C(=O)N1CC2(C1)OCc1cc(N3CCC(c4cc(Cl)cc(Cl)c4)(C(F)(F)F)C3)ccc12 (stereo not shown) [Example 24] | > 3 | ≥ 3 | –
20 | CC(C)C(=O)N1CC2(C1)OCc1cc(N3CCC(c4cc(Cl)c(Cl)c(Cl)c4)(C(F)(F)F)C3)ccc12 (stereo not shown) [Example 25] | > 3 | ≥ 3 | –
21 | CS(=O)(=O)CC(=O)N1CC2(C1)OCc1cc(C3=NOC(c4cc(Cl)c(F)c(Cl)c4)(C(F)(F)F)O3)ccc12 (stereo not shown) [Example 27, 1-(5′-(5-(3,5-dichloro-4-fluorophenyl)-5-(trifluoromethyl)-1,4,2-dioxazol-3-yl)-3′H-spiro[azetidine-3,1′-isobenzofuran]-1-yl)-2-(methylsulfonyl)ethanone] | > 3 | ≥ 3 | –
22 | CS(=O)(=O)CC(=O)N1CC2(C1)OCc1cc(C3=NOC(c4cc(Cl)cc(Cl)c4)(C(F)(F)F)O3)ccc12 (stereo not shown) [Example 29, 1-(5-(5-(3,5-dichlorophenyl)-5-(trifluoromethyl)-1,4,2-dioxazol-3-yl)-3′H-spiro[azetidine-3,1′-isobenzofuran]-1-yl)-2-(methylsulfonyl)ethanone] | > 3 | ≥ 3 | –
23 | CC(C)C(=O)N1CC2(C1)OCc1cc(C3=NOC(c4cc(Cl)cc(Cl)c4)(C(F)(F)F)O3)ccc12 (stereo not shown) [Example 30, 1-(5-(5-(3,5-dichlorophenyl)-5-(trifluoromethyl)-1,4,2-dioxazol-3-yl)-3′H-spiro[azetidine-3,1′-isobenzofuran]-1-yl)-2-methylpropan-1-one] | – | ≥ 3 | 0.3
24 | CS(=O)(=O)CC(=O)N1CC2(C1)OCc1cc(C3=NOC(c4cc(Cl)c(Cl)c(Cl)c4)(C(F)(F)F)O3)ccc12 (stereo not shown) [Example 32, 2-(methylsulfonyl)-1-(5′-(5-(3,4,5-trichlorophenyl)-5-(trifluoromethyl)-1,4,2-dioxazol-3-yl)-3′H-spiro[azetidine-3,1′-isobenzofuran]-1-yl)ethanone] | > 3 | ≥ 3 | –
